In patent US20070225213A1, “Nucleic acid carriers for delivery of therapeutic agents” (priority 2006, published 2007):

How the values were obtained:
MCF7 = assay: Cell uptake by MTN fluorescence EX620/EM680 (Examples 10 and 13, EX051605); format: cell-based, human; details: 10% w/w loading in DNA
Protocol: Materials: HSGDNA, MTN, ODNAS1116 (phosphorothioated, single stranded DNA, and Beta-cyclodextrin polymer (BCD-SBE, KKBIOMED Inc.) were previously prepared in water at 10 mg/ml, 1 mg/ml, 0.95 mg/ml, and 10 mg/ml respectively.
Procedure: For NAC-MTN, combined 37 ul HSGDNA (herring genomic DNA, Promega Inc.), 1426 ul HBSS( Hank's buffered saline, Sigma-Aldrich), with 37 ul of MTN, followed by 1500 ul 2× DMEM media to give 3 ml final and 24 uM (24 micro-molar) MTN and 10% w/w drug loading of MTN. For NAC-MTN (AR1505) combined 62 ul of HSDNA (deg. herring sperm DNA, Sigma) with 2377 ul HBSS, 61.7 ul MTN, 2500 ul 2× media to give 5 ml final and 24 uM MTN and 10% w/w drug loading of MTN to HSDNA. […]
Plate#1 Media was aspirated and cells treated with 100 ul of either NAC-MTN, CD-MTN, or MTN at 24 uM MTN final or 12.3 ug/ml MTN in all samples. Samples containing MTN were incubated 4 hours, removed, and fluorescence taken at EX620/EM680. […]
Samples were incubated 4 hours, removed, and MTN fluorescence taken at EX620/EM680. […] Average MTN fluorescence was averaged from 6 wells. For each cell type, MTN fluorescence was highest in MTN treated cells, followed by CD-MTN, and lowest in NAC-MTN. […]
PLATE#2: Dispensed 50 ul from source plate into plate #2 to give 150 ul final vol 4.1 ug/ml, 8 uMfinal per well, pre-read fluorescence w samples (bkgd) incubated 5 hr, removed, replaced w/ media, read fluor. […]

COS7 = assay: Effect of plating time on uptake of NAC-MTN and MTN, fluorescence (Example 11); format: cell-based, green monkey
Protocol: The effect of plating time on the differential rates of uptake between NAC-MTN and MTN were assayed in cells treated <1 hour and 24 hours after plating.
On day 1, MCF7, COS7, 3T3, and BHK21 cells were plated out in a standard tissue culture plate. After incubation of 20 minutes samples were added to cells in rows A, C, E, and G. Cells were incubated at 37C in a standard atmosphere of 5%CO2.
On day 2, samples were added to rows D, F, and H and the fluorescence was obtained EX620/EM680 S=80. Samples were removed from A,C,E and G, replaced with media and fluorescence read again. On day 2 observed significant drug toxicity in cells of rows A,C, E, G. Sample addition was postponed in row B since MCF7 were not yet confluent.
On day 3, added samples to cells in row B containing confluent MCF7's, removed samples from rows D, F, and H replaced with media and read fluorescence.
Fluorescence data from cells taken after removal of media was used to quantitate total MTN retained in the cells. Fluorescence data were converted to mg/ml MTN using a standard curve prepared with free MTN or NAC-MTN.
The percentage difference in fluorescence between cells treated with NAC-MTN or MTN alone was used to compare relative drug uptake.
The MTN fluorescence ratios were obtained by dividing MTN fluorescence of cells incubated for 24 hours by fluorescence of cells incubated 30 minutes. […] The uptake in BHK21 was roughly equivalent for NAC-MTN regardless of plate adherence, however it should be noted that BHK21 adhere very rapidly to the plate.
Fluorescence data were converted to micromolar drug concentrations (uM MTN) using a standard curve for either nucleic acid bound or unbound drug, and drug uptake ratios were obtained by dividing the t(24 hour)/t(30 min.). The ratios of absolute drug concentration per well show more dramatic differences in uptake as shown below.

[1] = In vivo MTN distribution in organs and recovery in urine after multiple i.v. dosing (Example 16, EX102205)
Procedure: Differential targeting and distribution of NAC-MTN or MTN in major organs of the mouse. NAC-MTN or MTN was administered intravenously to mice and detected in major organs after 24 hours. […] Total MTN in tissues was quantified by MTN fluorescence, normalized against total tissue weight, and reported as MTN mg/g tissue.
Mice n=2, were injected i.v. with repeated dose of either NAC-MTN or MTN alone. MTN administered was the same for each mouse.
A 0.4 ml volume of each NAC-MTN or MTN formulation was prepared for injection in HBSS or H2O (Hanks Buffered Saline, Sigma-Aldrich) as indicated below. For NAC-MTN injection, 45 ul 10 mg/ml MTN was diluted first in 325 ul of HBSS solution, then 180 ul of herring sperm DNA (HSDNA, 50 mg/ml stock neutralized, 0.2 um filtered) was added to give a turquoise blue color. […] In MTN injection, 45 ul 10 mg/ml MTN was diluted in 385 ul of H2O.
On day 1, white mice, n=2, 24 g each, were tail vein injected by a micro-catheter with 0.16 ml at 14:50 or 0.15 ml at 15:30, respectively of either NAC-MTN or MTN. A second injection was followed at 17:00 and 16:50 of 0.2 ml each of NAC-MTN or MTN. To quantify total MTN retained, mouse urine was collected after 1st and 2nd injection. Total MTN was assayed in mouse urine immediately after 1st injection and second injection by reading MTN fluorescence 620/680 s=50 of a 0.2 ml sample in a styrene well, bottom read. […] A third dose of 0.2 ml was given the next morning, 22 hours after 1st injection (day 2), of either NAC-MTN or MTN. […] Twenty four hours after first injection (day 2), mice were sacrificed and MTN assayed in major organs. The liver, kidneys, heart, and lung were homogenized at high speed 50,000 rpm, and treated with 1% SDS (sodium dodecyl sulfate). The homogenates were frozen twice and centrifuged for 30 minutes at 14000 rcf.

[2] = three i.v. doses, 24 hours after first injection

For `O=C1c2c(O)ccc(O)c2C(=O)c2c(NCCNCCO)ccc(NCCNCCO)c21` [MTN, mitoxantrone], the “% reduction in fluorescence relative to MTN alone (MTN = 0%)” value (MCF7; Plate#1, 24 uM MTN, 4 hours) was 0%, the “% reduction in fluorescence relative to MTN alone (MTN = 0%)” value (MCF7; Plate#2, 8 uM MTN) was 0% and the “MTN FLUOR Ratio of t(24)/t(<1)” value (COS7) was 0.70. The “FLUOR (MTN fluorescence in cells)” value (COS7; cells treated 24 hour after plating) was 15289, the “FLUOR (MTN fluorescence in cells)” value (COS7; cells treated <1 hour after plating) was 13814 and the “Ratio uM MTN of t(24)/t(<1)” value (COS7; from standard curve for bound or unbound drug) was 1.2. For the same compound, the “MTN % dose recov. (urine)” value ([1]; Collect Time 0-2 hr) was 2.9%, the “MTN Recov. (urine)” value ([1]; Collect Time 0-2 hr, dose 0.18 mg (NAC-MTN) or 0.17 mg (MTN) at 0 hr) was 0.0049 mg and the “MTN % dose recov. (urine)” value ([1]; Collect Time 3-12 hr) was 12%. The “MTN Recov. (urine)” value ([1]; Collect Time 3-12 hr, dose 0.225 mg at 3 hr) was 0.0279 mg, the “MTN % dose recov. (urine)” value ([1]; Collect Time 12-24 hr) was 13% and the “MTN Recov. (urine)” value ([1]; Collect Time 12-24 hr, dose 0.225 mg at 22 hr) was 0.0297 mg. The “MTN in Heart” value [1, 2] was 0.033 mg/g tissue, the “MTN in Kidney” value [1, 2] was 0.26 mg/g tissue and the “MTN in Liver” value [1, 2] was 0.077 mg/g tissue. The “MTN in Lung” value [1, 2] was 0.027 mg/g tissue and the “MTN in Kidney” value ([1]; three i.v. doses, 24 hours after first injection, listed as MTN only) was 0.261 mg/g tissue.
